From US20060069132A1, “Azolecarboxamide herbicides” (priority 2004, published 2006)

Tests used:
morningglory = assay: Test B pre-/postemergence herbicide test; assay type: in vivo, Ipomoea coccinea
Summary of the method: (§1)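 Greenhouse pot assay with simultaneous preemergence (treated seed) and postemergence (2–18 cm seedlings) applications of surfactant-containing, non-phytotoxic solvent formulations. Response scored visually 13–15 days later on a 0–100 scale, 100 meaning complete control.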

lambsquarters = assay: Test B pre-/postemergence herbicide test; assay type: in vivo, Chenopodium album
Summary of the method: (§2)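 Visual rating, 0 (no effect) to 100 (complete control), versus untreated controls after 13–15 d in greenhouse. Pre- and postemergence applications (postemergence plants 2–18 cm, 1–4 leaves); flooded paddy arm at 2-leaf stage. Compounds in non-phytotoxic solvent plus surfactant.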

rice = assay: Test B flooded paddy test; assay type: in vivo, Oryza sativa; conditions: 1000 g ai/ha, visual rating, scale 0 to 100 (0 no effect, 100 complete control), 13 to 15 days
Summary of the method: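 Read-out: visual comparison with controls, scored 0 to 100, where 100 means complete control and 0 no effect. Formulated chemicals were applied postemergence to plants 2–18 cm tall (1- to 4-leaf), or to flooded-paddy plants at the 2-leaf stage, then held 13 to 15 days under glass.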

pigweed = assay: Test B pre-/postemergence herbicide test; assay type: in vivo, Amaranthus retroflexus
Summary of the method: as §2

giant foxtail = assay: Test B pre-/postemergence herbicide test; assay type: in vivo, Setaria faberi
Summary of the method: as §2

barnyardgrass [1] = assay: Test B flooded paddy test; assay type: in vivo, Echinochloa crus-galli; conditions: 1000 g ai/ha, visual rating, scale 0 to 100 (0 no effect, 100 complete control), 13 to 15 days
Summary of the method: (§3)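 Greenhouse test; postemergence application to plants at 1–4 leaves (2–18 cm); paddy species at 2 leaves; evaluated visually vs controls at 13–15 days; scale 0–100 (100 = complete control).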

Surinam grass = assay: Test B pre-/postemergence herbicide test; assay type: in vivo, Urochloa decumbens
Summary of the method: as §2

blackgrass = assay: Test B postemergence herbicide test; assay type: in vivo, Alopecurus myosuroides; conditions: scale 0 (no effect) to 100 (complete control); for Blackgrass plant response rating: 125 g ai/ha; for Plant response rating, Blackgrass: 500 g ai/ha, visual rating after 13 to 15 days
Summary of the method: as §3

wild oat = assay: Test B postemergence herbicide test; assay type: in vivo, Avena fatua; conditions: scale 0 (no effect) to 100 (complete control); for Oat, Wild plant response rating: 125 g ai/ha; for Plant response rating, Oat, Wild: 500 g ai/ha, visual rating after 13 to 15 days
Summary of the method: (§4)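 Each value is a visual 0–100 response rating taken against controls 13 to 15 days after treatment in the greenhouse. Plants received formulated chemical postemergence at the 1- to 4-leaf stage or, in flooded paddy, at the 2-leaf stage.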

wheat = assay: Test B postemergence herbicide test; assay type: in vivo, Triticum aestivum; parameters: key to Wheat plant response rating: 0 = no effect, 100 = complete control; conditions: scale 0 (no effect) to 100 (complete control); for Plant response rating, Wheat: Postemergence, 500 g ai/ha, visual rating after 13 to 15 days
Summary of the method: as §4

[2] = tested on: small flower umbrella sedge; assay: Test B flooded paddy test; assay type: in vivo, Cyperus difformis; conditions: 1000 g ai/ha, visual rating, scale 0 to 100 (0 no effect, 100 complete control), 13 to 15 days
Summary of the method: as §3

velvetleaf = assay: Test B pre-/postemergence herbicide test; assay type: in vivo, Abutilon theophrasti
Summary of the method: as §2

barnyardgrass [3] = assay: Test B pre-/postemergence herbicide test; assay type: in vivo, Echinochloa crus-galli
Summary of the method: as §1

cocklebur = assay: Test B pre-/postemergence herbicide test; assay type: in vivo, Xanthium strumarium
Summary of the method: as §1

large crabgrass = assay: Test B pre-/postemergence herbicide test; assay type: in vivo, Digitaria sanguinalis
Summary of the method: as §2

[4] = Preemergence, 500 g ai/ha, scale 0 to 100
[5] = preemergence, 125 g ai/ha, 0 to 100 scale, 0 is no effect, 100 is complete control
[6] = Postemergence, 125 g ai/ha, scale 0 (no effect) to 100 (complete control)
[7] = Postemergence, 500 g ai/ha, visual rating after 13 to 15 days, scale 0 (no effect) to 100 (complete control)
[8] = postemergence, 125 g ai/ha, visual rating, scale 0 (no effect) to 100 (complete control)

CCNC(=O)c1cccc(NC(=O)c2cc(C(C)(C)C)nn2CCF)c1 [Compound 35]
90: Plant response rating, Lambsquarters (lambsquarters; [7]) | Plant response rating, Lambsquarters (lambsquarters; [5]) | Barnyardgrass plant response rating (barnyardgrass [1]) | Sedge, Umbrella plant response rating [2] | Crabgrass, Large plant response rating (large crabgrass; [4])
50: Plant response rating, Velvetleaf (velvetleaf; [7]) | Plant response rating, Velvetleaf (velvetleaf; [5]) | Cocklebur plant response rating (cocklebur; [6])
80: Lambsquarters plant response rating (lambsquarters; [6]) | Plant response rating, Foxtail, Giant (giant foxtail; [5]) | Surinam Grass plant response rating (Surinam grass; [4])
60: Rice plant response rating (rice) | Velvetleaf plant response rating (velvetleaf; [4])
10: Morningglory plant response rating (morningglory; [4]) | Plant response rating, Morningglory (morningglory; [5]) | Plant response rating, Oat, Wild (wild oat; Postemergence) | Barnyardgrass plant response rating (barnyardgrass [3]; [6])
100: Lambsquarters plant response rating (lambsquarters; [4]) | Plant response rating, Pigweed (pigweed; [7]) | Pigweed plant response rating (pigweed; [4]) | Plant response rating, Pigweed (pigweed; [5]) | Foxtail, Giant plant response rating (giant foxtail; [4]) | Barnyardgrass plant response rating (barnyardgrass [3]; [4]) | Plant response rating, Cocklebur (cocklebur; [7])
40: Plant response rating, Surinam Grass (Surinam grass; [7]) | Plant response rating, Surinam Grass (Surinam grass; [5])
20: Foxtail, Giant plant response rating (giant foxtail; [6]) | Plant response rating, Foxtail, Giant (giant foxtail; [7]) | Blackgrass plant response rating (blackgrass; Postemergence) | Plant response rating, Wheat (wheat) | Plant response rating, Barnyardgrass (barnyardgrass [3]; [7]) | Crabgrass, Large plant response rating (large crabgrass; [6]) | Plant response rating, Crabgrass, Large (large crabgrass; [7])
0: Oat, Wild plant response rating (wild oat; Postemergence)
30: Plant response rating, Blackgrass (blackgrass; Postemergence) | Cocklebur plant response rating (cocklebur; [4])

CCn1nc(C(C)(C)C)cc1C(=O)Nc1cccc(C(=O)NC2CC2)c1 [Compound 44]
90: Plant response rating, Morningglory (morningglory; [7]) | Plant response rating, Lambsquarters (lambsquarters; [7]) | Plant response rating, Crabgrass, Large (large crabgrass; [7])
80: Lambsquarters plant response rating (lambsquarters; [6]) | Plant response rating, Lambsquarters (lambsquarters; [5]) | Plant response rating, Velvetleaf (velvetleaf; [7]) | Plant response rating, Cocklebur (cocklebur; [7])
40: Surinam Grass plant response rating (Surinam grass; [4]) | Cocklebur plant response rating (cocklebur; [6])
20: Foxtail, Giant plant response rating (giant foxtail; [6]) | Plant response rating, Surinam Grass (Surinam grass; [7]) | Plant response rating, Blackgrass (blackgrass; Postemergence) | Oat, Wild plant response rating (wild oat; Postemergence) | Plant response rating, Oat, Wild (wild oat; Postemergence) | Plant response rating, Wheat (wheat) | Plant response rating, Velvetleaf (velvetleaf; [5]) | Barnyardgrass plant response rating (barnyardgrass [3]; [6]) | Cocklebur plant response rating (cocklebur; [4]) | Crabgrass, Large plant response rating (large crabgrass; [6])
0: Plant response rating, Morningglory (morningglory; [5]) | Plant response rating, Foxtail, Giant (giant foxtail; [5]) | Plant response rating, Surinam Grass (Surinam grass; [5])
60: Plant response rating, Barnyardgrass (barnyardgrass [3]; [7])
70: Rice plant response rating (rice) | Foxtail, Giant plant response rating (giant foxtail; [4]) | Barnyardgrass plant response rating (barnyardgrass [1]) | Sedge, Umbrella plant response rating [2]
100: Lambsquarters plant response rating (lambsquarters; [4]) | Plant response rating, Pigweed (pigweed; [7]) | Pigweed plant response rating (pigweed; [4]) | Plant response rating, Pigweed (pigweed; [5]) | Velvetleaf plant response rating (velvetleaf; [4]) | Barnyardgrass plant response rating (barnyardgrass [3]; [4]) | Crabgrass, Large plant response rating (large crabgrass; [4])
10: Morningglory plant response rating (morningglory; [4]) | Blackgrass plant response rating (blackgrass; Postemergence)
30: Morningglory plant response rating (morningglory; [6]) | Plant response rating, Foxtail, Giant (giant foxtail; [7])

CCn1nc(C(C)(C)C)cc1C(=O)Nc1cccc(C(=O)NCCF)c1 [Compound 45]
80: Lambsquarters plant response rating (lambsquarters; [6]) | Barnyardgrass plant response rating (barnyardgrass [1]) | Plant response rating, Cocklebur (cocklebur; [7]) | Cocklebur plant response rating (cocklebur; [4])
50: Surinam Grass plant response rating (Surinam grass; [4])
70: Rice plant response rating (rice) | Sedge, Umbrella plant response rating [2] | Plant response rating, Velvetleaf (velvetleaf; [7])
40: Morningglory plant response rating (morningglory; [6])
90: Plant response rating, Morningglory (morningglory; [7]) | Plant response rating, Lambsquarters (lambsquarters; [7]) | Crabgrass, Large plant response rating (large crabgrass; [4])
20: Foxtail, Giant plant response rating (giant foxtail; [6]) | Plant response rating, Surinam Grass (Surinam grass; [5]) | Plant response rating, Blackgrass (blackgrass; Postemergence) | Plant response rating, Oat, Wild (wild oat; Postemergence) | Plant response rating, Velvetleaf (velvetleaf; [5]) | Barnyardgrass plant response rating (barnyardgrass [3]; [6]) | Cocklebur plant response rating (cocklebur; [6])
10: Plant response rating, Morningglory (morningglory; [5]) | Plant response rating, Foxtail, Giant (giant foxtail; [5]) | Blackgrass plant response rating (blackgrass; Postemergence)
0: Oat, Wild plant response rating (wild oat; Postemergence)
100: Lambsquarters plant response rating (lambsquarters; [4]) | Plant response rating, Lambsquarters (lambsquarters; [5]) | Plant response rating, Pigweed (pigweed; [7]) | Pigweed plant response rating (pigweed; [4]) | Plant response rating, Pigweed (pigweed; [5]) | Foxtail, Giant plant response rating (giant foxtail; [4]) | Velvetleaf plant response rating (velvetleaf; [4]) | Barnyardgrass plant response rating (barnyardgrass [3]; [4])
30: Morningglory plant response rating (morningglory; [4]) | Plant response rating, Foxtail, Giant (giant foxtail; [7]) | Plant response rating, Surinam Grass (Surinam grass; [7]) | Plant response rating, Wheat (wheat) | Plant response rating, Barnyardgrass (barnyardgrass [3]; [7]) | Crabgrass, Large plant response rating (large crabgrass; [6]) | Plant response rating, Crabgrass, Large (large crabgrass; [7])

CCn1nc(C(C)(C)C)cc1C(=O)Nc1cccc(C(=O)NC(C)C)c1 [Compound 51]
30: Plant response rating, Surinam Grass (Surinam grass; [5])
0: Plant response rating, Morningglory (morningglory; [7]) | Morningglory plant response rating (morningglory; [4]) | Morningglory plant response rating (morningglory; [8]) | Plant response rating, Morningglory (morningglory; [5]) | Plant response rating, Foxtail, Giant (giant foxtail; [7]) | Foxtail, Giant plant response rating (giant foxtail; [8]) | Plant response rating, Blackgrass (blackgrass; Postemergence) | Blackgrass plant response rating (blackgrass; postemergence, visual rating) | Oat, Wild plant response rating (wild oat; postemergence, visual rating) | Plant response rating, Cocklebur (cocklebur; [5])
70: Rice plant response rating (rice) | Plant response rating, Velvetleaf (velvetleaf; [7]) | Cocklebur plant response rating (cocklebur; [8])
20: Plant response rating, Surinam Grass (Surinam grass; [7]) | Plant response rating, Wheat (wheat) | Wheat plant response rating (wheat; postemergence, 125 g ai/ha, visual rating) | Crabgrass, Large plant response rating (large crabgrass; [8])
80: Lambsquarters plant response rating (lambsquarters; [8]) | Pigweed plant response rating (pigweed; [8]) | Surinam Grass plant response rating (Surinam grass; [4]) | Sedge, Umbrella plant response rating [2] | Plant response rating, Barnyardgrass (barnyardgrass [3]; [7]) | Plant response rating, Barnyardgrass (barnyardgrass [3]; [5]) | Plant response rating, Cocklebur (cocklebur; [7])
90: Plant response rating, Lambsquarters (lambsquarters; [7]) | Barnyardgrass plant response rating (barnyardgrass [1]) | Plant response rating, Crabgrass, Large (large crabgrass; [5])
100: Lambsquarters plant response rating (lambsquarters; [4]) | Plant response rating, Lambsquarters (lambsquarters; [5]) | Plant response rating, Pigweed (pigweed; [7]) | Pigweed plant response rating (pigweed; [4]) | Plant response rating, Pigweed (pigweed; [5]) | Foxtail, Giant plant response rating (giant foxtail; [4]) | Plant response rating, Foxtail, Giant (giant foxtail; [5]) | Velvetleaf plant response rating (velvetleaf; [4]) | Barnyardgrass plant response rating (barnyardgrass [3]; [4]) | Crabgrass, Large plant response rating (large crabgrass; [4])
60: Velvetleaf plant response rating (velvetleaf; [8]) | Barnyardgrass plant response rating (barnyardgrass [3]; [8])
10: Surinam Grass plant response rating (Surinam grass; [8]) | Plant response rating, Oat, Wild (wild oat; Postemergence)
50: Plant response rating, Velvetleaf (velvetleaf; [5]) | Cocklebur plant response rating (cocklebur; [4]) | Plant response rating, Crabgrass, Large (large crabgrass; [7])
